One may read the EC50 as the concentration giving half of the maximal effect. Higher therefore signals weaker potency. In general, Ki refers to the dissociation constant of the complex between target and ligand, obtained from inhibition or displacement. High values mean a looser hold on the target, low ones a stronger hold on the target.

human opioid receptor-like (ORL-1), sequence (P41146 whole entry): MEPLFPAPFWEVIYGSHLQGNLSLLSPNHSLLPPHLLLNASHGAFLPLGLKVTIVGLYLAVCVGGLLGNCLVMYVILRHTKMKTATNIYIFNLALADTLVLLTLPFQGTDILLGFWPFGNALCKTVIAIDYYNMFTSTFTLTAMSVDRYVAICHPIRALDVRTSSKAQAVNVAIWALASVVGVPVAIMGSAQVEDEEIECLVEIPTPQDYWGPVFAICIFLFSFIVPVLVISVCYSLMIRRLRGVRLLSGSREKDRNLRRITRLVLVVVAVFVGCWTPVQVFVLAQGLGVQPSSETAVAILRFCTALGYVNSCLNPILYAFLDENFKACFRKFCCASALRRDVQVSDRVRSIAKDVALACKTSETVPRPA

The first test concerns the target human opioid receptor-like (ORL-1) (Homo sapiens (Human), UniProt P41146). The test can be described thus: In vitro ORL-1 receptor [35S]GTPγS functional assay. It is filed as biochemical.
Conditions: not given
On the technique in general: Binding of GTPγS marks nucleotide exchange on a G protein.
Consider `O=C(O)c1nc2ccccc2n(C2CC3CCCC(C2)N3C23CC4CC(CC2C4)C3)c1=O` (stereo not drawn) [compound 263, 4-(9-(hexahydro-2,5-methano-pentalen-3a-yl)-9-aza-bicyclo[3.3.1]non-3-yl)-3-oxo-3,4-dihydro-quinoxaline-2-carboxylic acid], for which the midpoint of the response, the EC50, lay at 298 ± 26 nM.

For the compound `COC(=O)[C@@H]1CCCN1c1nc2ccccc2n(C2CCN(C3CCCCCCC3)CC2)c1=O` [compound 27], the EC50 turned out to be 969 ± 89 nM. Same read-out and setting: the value for `CSCCC(NC(=O)c1nc2ccccc2n([C@H]2C[C@H]3CC[C@@H](C2)N3C2CCCCCCC2)c1=O)C(=O)O` (stereo partly drawn) [compound 309, 2-(4-((endo)-8-cyclooctyl-8-azabicyclo[3.2.1]octan-3-yl)-3-oxo-3,4-dihydroquinoxaline-2-carboxamido)-4-(methylthio)butanoic acid] was 659 ± 155 nM. As to `COC(=O)C(CO)Nc1nc2ccccc2n(C2CCN(C3CCCCCCC3)CC2)c1=O` (stereo not drawn) [compound 46], the response was half-maximal at 399 ± 56 nM (EC50). On the same count and under the same terms, the value for `CN(CC(O)CO)c1nc2ccccc2n(C2CCN(C3CCCCCCC3)CC2)c1=O` (stereo not drawn) [compound 65] was 348 ± 22 nM; that for `O=C(O)C1CCCN1C(=O)c1nc2ccccc2n([C@H]2C[C@H]3CC[C@@H](C2)N3C2CCCCCCC2)c1=O` (stereo partly drawn) [compound 306, 1-(4-((endo)-8-cyclooctyl-8-azabicyclo[3.2.1]octan-3-yl)-3-oxo-3,4-dihydroquinoxaline-2-carbonyl)pyrrolidine-2-carboxylic acid] was 548 ± 57 nM; that for `NC(=O)CNc1nc2ccccc2n(C2CCN(C3CCCCCCC3)CC2)c1=O` [compound 32] was 406 ± 42 nM. The compound `CONC(=O)c1nc2ccccc2n(C2CCN(C3CCCCCCC3)CC2)c1=O` [compound 83] returned an EC50 of 558 ± 77 nM. Same read-out and setting: the figure for `O=c1c(N2Cc3ccccc3C2)nc2ccccc2n1C1CCN(C2CCCCCCC2)CC1` [compound 19, 1-(1-cyclooctylpiperidin-4-yl)-3-(isoindolin-2-yl)quinoxalin-2(1H)-one] is 286 ± 30 nM; for `CC(C)CCC(C)N1[C@@H]2CCC[C@H]1C[C@@H](n1c(=O)c(C(=O)O)nc3ccccc31)C2` (stereo partly drawn) [compound 303] it is 298 ± 23 nM; for `CS(=O)(=O)NC1CCN(c2nc3ccccc3n(C3CCN(C4CCCCCCC4)CC3)c2=O)CC1` [compound 30] it is 699 ± 19 nM.

As for `CCOC(=O)c1nc2ccccc2n(C2CCN(C3CCCCCCC3)CC2)c1=O` [compound 70, ethyl 4-(1-cyclooctylpiperidin-4-yl)-3-oxo-3,4-dihydroquinoxaline-2-carboxylate], the EC50 came out at 788 ± 44 nM. Still for that read-out and setting: the figure for `N=C(N)NCCNc1nc2ccccc2n(C2CCN(C3CCCCCCC3)CC2)c1=O` [compound 26] is 109 ± 5.9 nM.

For another test, the target named is delta opioid receptor (Homo sapiens (Human), UniProt P41143). The test can be described thus: In vitro delta-opioid receptor binding assay ([3H]-Naltrindole displacement).
delta opioid receptor, sequence (P41143 whole entry): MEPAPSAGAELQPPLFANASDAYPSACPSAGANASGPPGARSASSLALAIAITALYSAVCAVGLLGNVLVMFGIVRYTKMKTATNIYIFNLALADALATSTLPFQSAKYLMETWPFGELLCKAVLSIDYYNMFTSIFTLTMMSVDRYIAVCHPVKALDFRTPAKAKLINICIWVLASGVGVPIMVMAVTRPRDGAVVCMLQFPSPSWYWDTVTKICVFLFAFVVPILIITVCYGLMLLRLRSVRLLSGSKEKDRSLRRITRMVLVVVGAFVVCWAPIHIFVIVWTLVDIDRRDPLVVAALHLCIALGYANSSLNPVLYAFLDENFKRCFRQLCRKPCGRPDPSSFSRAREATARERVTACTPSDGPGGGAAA
Conditions: not given
Compound `O=C(O)c1nc2ccccc2n(C2CC3CCCC(C2)N3C23CC4CC(CC2C4)C3)c1=O` (stereo not drawn) [compound 263, 4-(9-(hexahydro-2,5-methano-pentalen-3a-yl)-9-aza-bicyclo[3.3.1]non-3-yl)-3-oxo-3,4-dihydro-quinoxaline-2-carboxylic acid] returned a Ki of 526000 nM.

In another test the test system is FCA-induced inflammation of the rat hind paw.
Assay: not given
Conditions: in vivo.
On to `O=C(O)c1nc2ccccc2n([C@H]2C[C@H]3CCC[C@@H](C2)N3C2CCCCCCC2)c1=O` [compound 241, 4-((endo)-9-cyclooctyl-9-azabicyclo[3.3.1]nonan-3-yl)-3-oxo-3,4-dihydroquinoxaline-2-carboxylic acid], for which the “maximum % reversal of thermal hyperalgesia” value was “about 80%”.

The record behind these values is patent US8846929B2, “Substituted-quinoxaline-type piperidine compounds and the uses thereof” (priority 2007, dated 2014).
